Laboratory results from patent publication US20120255051A1, “HERBICIDE TOLERANT PLANTS” (priority 2009, published 2012).
“And” between values parts separate entries of the source, which are not always exact repeats. Identical values can stand only once.

System: Brassica plants comprising mutant AHAS alleles
Assay: Field trial, pre-planting treatment (0, 10, 20, 30 g a.i./ha), two locations in Canada: ERG, EST1, EST2, PPTOX, VIG1, VIG2, VIG3 scores
Assay type: in vivo, Brassica napus
Conditions: for vigor3 (VIG3) score, Av: Elite parent line plants
Description: Tests were set up and conducted to asses the growth and performance of plants comprising AHAS full knock-out alleles, and to further analyze the correlation between the presence of full knockout and missense AHAS genes in Brassica plants and plant growth and herbicide tolerance of the Brassica plants in the field. To this end, the Brassica plants identified in Example 1 and 2 were backcrossed two times with an elite parent line, and subsequently selfed twice to obtain homozygous plants (BC2S2). Plants were grown as row plots in a split plot design with three replicates (main plots=herbicide treatments, subplots=genotypes) at two locations in Canada. Treatment pre-planting was carried out on the soil about two days before sowing with a dose of 0 (treatment A), 10 (treatment B), 20 (treatment C) or 30 (treatment D) g a.i./ha of thiencarbazone methyl. Herbicide tolerance was measured by scoring for different parameters. The parameter emergence (ERG) was scored at the cotyledon stage on a scale 1-9, where 1 means late emergence and 9 means early emergence. Establishment was scored 14 days after sowing (EST1) and 21 days after sowing (EST2). Scores were from 1 to 9, where 1 is the worst establishment (least plants that emerged), and 9 is the best establishment (most plants emerged). Phytotoxicity (PPTOX) was determined after establishment. Plants were evaluated on a scale of 1 to 9, where 1=completely yellowing, 5=50% of plant is yellow and 9=no yellowing. The vigor scores (see above) were determined at 1-2 leaf stage (VIG1), 7 days after VIG1 (VIG2) and 14 days after VIG1 (VIG3). The average values (Av) and standard deviations (SD) of the scores for the different parameters are represented in Table 7a-g.
Further, the contribution of the knock-out allele to herbicide tolerance conferred by the missense allele was calculated. First, the scores were corrected for a possible effect of the growth per se, independent of herbicide treatment. To this end, the scores for treatments B, C and D were divided by the scores for treatment A for the same genotype and for the same parameter (corrected herbicide tolerance scores). Next, the effect of the knock-out allele to these corrected herbicide tolerance scores obtained by the missense allele was calculated. Therefore, the corrected herbicide tolerance scores for the missense—knock-out allele combination was divided by the corrected herbicide tolerance scores for the missense allele—wild-type combination. In case the knock-out allele has no effect on herbicide tolerance conferred by the missense allele, this ratio should be 1. In case the knock-out allele positively contributes to the herbicide tolerance conferred by the missense allele, this ratio should be higher than 1. The results for the contribution of the knock-out allele to herbicide tolerance conferred by the missense allele as calculated above are shown in table 8.

[1] = AHAS1 WT/AHAS3 HETO104, 10 g a.i./ha pre-planting (B), Location A
[2] = AHAS1 WT/AHAS3 HETO104, 10 g a.i./ha pre-planting (B), Location B
[3] = AHAS1 WT/AHAS3 HETO104, 20 g a.i./ha pre-planting (C), Location A
[4] = AHAS1 WT/AHAS3 HETO104, 20 g a.i./ha pre-planting (C), Location B
[5] = AHAS1 WT/AHAS3 HETO104, 30 g a.i./ha pre-planting (D), Location A
[6] = AHAS1 WT/AHAS3 HETO104, 30 g a.i./ha pre-planting (D), Location B
[7] = AHAS1 WT/AHAS3 HETO111, 10 g a.i./ha pre-planting (B), Location A
[8] = AHAS1 WT/AHAS3 HETO111, 10 g a.i./ha pre-planting (B), Location B
[9] = AHAS1 WT/AHAS3 HETO111, 20 g a.i./ha pre-planting (C), Location A
[10] = AHAS1 WT/AHAS3 HETO111, 20 g a.i./ha pre-planting (C), Location B
[11] = AHAS1 WT/AHAS3 HETO111, 30 g a.i./ha pre-planting (D), Location A
[12] = AHAS1 WT/AHAS3 HETO111, 30 g a.i./ha pre-planting (D), Location B
[13] = AHAS1 WT/AHAS3 WT, 10 g a.i./ha pre-planting (B), Location A
[14] = AHAS1 WT/AHAS3 WT, 10 g a.i./ha pre-planting (B), Location B
[15] = AHAS1 WT/AHAS3 WT, 20 g a.i./ha pre-planting (C), Location A
[16] = AHAS1 WT/AHAS3 WT, 20 g a.i./ha pre-planting (C), Location B
[17] = AHAS1 WT/AHAS3 WT, 30 g a.i./ha pre-planting (D), Location A
[18] = AHAS1 WT/AHAS3 WT, 30 g a.i./ha pre-planting (D), Location B
[19] = Elite parent line, 10 g a.i./ha pre-planting (B), Location A
[20] = Elite parent line, 10 g a.i./ha pre-planting (B), Location B
[21] = Elite parent line, 20 g a.i./ha pre-planting (C), Location A
[22] = Elite parent line, 20 g a.i./ha pre-planting (C), Location B
[23] = Elite parent line, 30 g a.i./ha pre-planting (D), Location A
[24] = Elite parent line, 30 g a.i./ha pre-planting (D), Location B
[25] = Elite parent line, treatment B 10 g a.i./ha pre-planting, Location A
[26] = Elite parent line, treatment B 10 g a.i./ha pre-planting, Location B
[27] = Elite parent line, treatment C 20 g a.i./ha pre-planting, Location A
[28] = Elite parent line, treatment C 20 g a.i./ha pre-planting, Location B
[29] = Elite parent line, treatment D 30 g a.i./ha pre-planting, Location A
[30] = Elite parent line, treatment D 30 g a.i./ha pre-planting, Location B
[31] = Location A, treatment B 10 g a.i./ha pre-planting, ratio >1 = positive contribution

COC(=O)c1csc(C)c1S(=O)(=O)NC(=O)n1nc(OC)n(C)c1=O [thiencarbazone-methyl, methyl 4-[(4,5-dihydro-3-methoxy-4-methyl-5-oxo-1H-1,2,4-triazol-1-yl)carbonylsulfamoyl]-5-methylthiophene-3-carboxylate]
phytotoxicity (PPTOX) score, Av [1]: 1.33 | vigor1 (VIG1) score, Av [1]: 1.33 | vigor2 (VIG2) score, Av [1]: 1.00 | establishment (EST2) score, Av [2]: 3.33 | phytotoxicity (PPTOX) score, Av [2]: 1.33 | vigor2 (VIG2) score, Av [2]: 1.33 | establishment (EST2) score, Av [3]: 1.00 | phytotoxicity (PPTOX) score, Av [3]: 1.00 | vigor1 (VIG1) score, Av [3]: 1.00 | vigor2 (VIG2) score, Av [3]: 1.00 | establishment (EST2) score, Av [4]: 2.33 | phytotoxicity (PPTOX) score, Av [4]: 1.00 | vigor1 (VIG1) score, Av [4]: 1.33 | vigor2 (VIG2) score, Av [4]: 1.00 | establishment (EST2) score, Av [5]: 1.00 | phytotoxicity (PPTOX) score, Av [5]: 1.00 | vigor1 (VIG1) score, Av [5]: 1.00 | vigor2 (VIG2) score, Av [5]: 1.00 | establishment (EST2) score, Av [6]: 1.00 | phytotoxicity (PPTOX) score, Av [6]: 1.00 | vigor1 (VIG1) score, Av [6]: 1.00 | vigor2 (VIG2) score, Av [6]: 1.00 | establishment (EST2) score, Av [7]: 5.33 and 5.67 | vigor1 (VIG1) score, Av [7]: 6.00 | vigor2 (VIG2) score, Av [7]: 7.00 | phytotoxicity (PPTOX) score, Av [8]: 6.00 and 6.33 | vigor1 (VIG1) score, Av [8]: 6.33 and 6.00 | vigor2 (VIG2) score, Av [8]: 7.00 | establishment (EST2) score, Av [9]: 4.67 | phytotoxicity (PPTOX) score, Av [9]: 5.00 | vigor1 (VIG1) score, Av [9]: 5.00 | vigor2 (VIG2) score, Av [9]: 6.33 | establishment (EST2) score, Av [10]: 4.67 | vigor1 (VIG1) score, Av [10]: 5.00 | vigor2 (VIG2) score, Av [10]: 6.00 and 5.67 | establishment (EST2) score, Av [11]: 5.00 | phytotoxicity (PPTOX) score, Av [11]: 5.00 | vigor1 (VIG1) score, Av [11]: 5.00 | vigor2 (VIG2) score, Av [11]: 5.67 and 5.33 | phytotoxicity (PPTOX) score, Av [12]: 4.00 | vigor1 (VIG1) score, Av [12]: 3.67 | vigor2 (VIG2) score, Av [12]: 4.33 and 5.00 | establishment (EST2) score, Av [13]: 1.00 and 2.00 | phytotoxicity (PPTOX) score, Av [13]: 1.00 | vigor1 (VIG1) score, Av [13]: 1.00 and 1.33 | vigor2 (VIG2) score, Av [13]: 1.00 | establishment (EST2) score, Av [14]: 4.33 and 5.00 | phytotoxicity (PPTOX) score, Av [14]: 1.33 and 1.67 and 2.33 | vigor1 (VIG1) score, Av [14]: 3.00 | vigor2 (VIG2) score, Av [14]: 1.67 and 2.00 | establishment (EST2) score, Av [15]: 1.00 | phytotoxicity (PPTOX) score, Av [15]: 1.00 | vigor1 (VIG1) score, Av [15]: 1.00 | vigor2 (VIG2) score, Av [15]: 1.00 | establishment (EST2) score, Av [16]: 3.67 and 4.00 and 3.00 | phytotoxicity (PPTOX) score, Av [16]: 1.00 and 1.33 | vigor1 (VIG1) score, Av [16]: 1.33 | vigor2 (VIG2) score, Av [16]: 1.33 and 1.67 | establishment (EST2) score, Av [17]: 1.00 | phytotoxicity (PPTOX) score, Av [17]: 1.00 | vigor1 (VIG1) score, Av [17]: 1.00 | vigor2 (VIG2) score, Av [17]: 1.00 | establishment (EST2) score, Av [18]: 1.33 and 2.00 | phytotoxicity (PPTOX) score, Av [18]: 1.00 and 2.00 | vigor1 (VIG1) score, Av [18]: 1.33 | vigor2 (VIG2) score, Av [18]: 1.33 and 1.00 | vigor3 (VIG3) score, Av (10 g a.i./ha (treatment B) pre-planting, Location A): 1.00 | vigor3 (VIG3) score, Av (10 g a.i./ha (treatment B) pre-planting, Location B): 3.67 | vigor3 (VIG3) score, Av (20 g a.i./ha (treatment C) pre-planting, Location A): 1.00 | vigor3 (VIG3) score, Av (20 g a.i./ha (treatment C) pre-planting, Location B): 1.00 | vigor3 (VIG3) score, Av (30 g a.i./ha (treatment D) pre-planting, Location A): 1.00 | vigor3 (VIG3) score, Av (30 g a.i./ha (treatment D) pre-planting, Location B): 1.00 | establishment (EST2) score, Av [19]: 2.00 | phytotoxicity (PPTOX) score, Av [19]: 1.00 | vigor1 (VIG1) score, Av [19]: 1.00 | vigor2 (VIG2) score, Av [19]: 1.00 | establishment (EST2) score, Av [20]: 6.00 | phytotoxicity (PPTOX) score, Av [20]: 3.67 | vigor1 (VIG1) score, Av [20]: 4.00 | vigor2 (VIG2) score, Av [20]: 4.00 | establishment (EST2) score, Av [21]: 2.33 | phytotoxicity (PPTOX) score, Av [21]: 1.00 | vigor1 (VIG1) score, Av [21]: 1.33 | vigor2 (VIG2) score, Av [21]: 1.00 | establishment (EST2) score, Av [22]: 4.67 | phytotoxicity (PPTOX) score, Av [22]: 1.67 | vigor1 (VIG1) score, Av [22]: 2.00 | vigor2 (VIG2) score, Av [22]: 2.00 | establishment (EST2) score, Av [23]: 2.00 | phytotoxicity (PPTOX) score, Av [23]: 1.00 | vigor1 (VIG1) score, Av [23]: 1.00 | vigor2 (VIG2) score, Av [23]: 1.00 | establishment (EST2) score, Av [24]: 4.00 | phytotoxicity (PPTOX) score, Av [24]: 1.00 | vigor1 (VIG1) score, Av [24]: 1.33 | vigor2 (VIG2) score, Av [24]: 1.00 | emergence (ERG) score Av [25]: 2.00 | establishment (EST1) score Av, 14 days after sowing [25]: 2.00 | emergence (ERG) score Av [26]: 5.00 | establishment (EST1) score Av, 14 days after sowing [26]: 6.67 | emergence (ERG) score Av [27]: 2.33 | establishment (EST1) score Av, 14 days after sowing [27]: 2.33 | emergence (ERG) score Av [28]: 4.33 | establishment (EST1) score Av, 14 days after sowing [28]: 4.67 | emergence (ERG) score Av [29]: 2.00 | establishment (EST1) score Av, 14 days after sowing [29]: 2.00 | emergence (ERG) score Av [30]: 3.00 | establishment (EST1) score Av, 14 days after sowing [30]: 4.00 | relative contribution of HETO104 (AHAS3 KO) to herbicide tolerance conferred by HETO108 (AHAS1 missense): ERG [31]: 0.86 | relative contribution of HETO104 (AHAS3 KO) to herbicide tolerance conferred by HETO108 (AHAS1 missense): EST1 [31]: 0.91 | relative contribution of HETO104 (AHAS3 KO) to herbicide tolerance conferred by HETO108 (AHAS1 missense): EST2 [31]: 0.95 | relative contribution of HETO104 (AHAS3 KO) to herbicide tolerance conferred by HETO108 (AHAS1 missense): PPTOX [31]: 0.83 | relative contribution of HETO104 (AHAS3 KO) to herbicide tolerance conferred by HETO108 (AHAS1 missense): VIG1 [31]: 0.90 | relative contribution of HETO104 (AHAS3 KO) to herbicide tolerance conferred by HETO108 (AHAS1 missense): VIG2 [31]: 0.88 | relative contribution of HETO104 (AHAS3 KO) to herbicide tolerance conferred by HETO108 (AHAS1 missense): VIG3 [31]: 0.96 | relative contribution of HETO112 (AHAS1 KO) to herbicide tolerance conferred by HETO111 (AHAS3 missense): ERG [31]: 0.85 | relative contribution of HETO112 (AHAS1 KO) to herbicide tolerance conferred by HETO111 (AHAS3 missense): EST1 [31]: 0.92 | relative contribution of HETO112 (AHAS1 KO) to herbicide tolerance conferred by HETO111 (AHAS3 missense): EST2 [31]: 1.04 | relative contribution of HETO112 (AHAS1 KO) to herbicide tolerance conferred by HETO111 (AHAS3 missense): PPTOX [31]: 1.06 | relative contribution of HETO112 (AHAS1 KO) to herbicide tolerance conferred by HETO111 (AHAS3 missense): VIG1 [31]: 1.10
